Laboratory results from PubChem BioAssay (NCI).
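96-well plates; 48 h exposure; 5 concentrations. Endpoints by linear interpolation between flanking doses. Not reached: highest tested concentration assigned. Definition used: TGI = concentration required for complete inhibition of growth.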

What was measured:
Experiment in all cases: DTP human tumour cell line panel, 48 h
A498 renal = system: A498 renal
A549 NSCLC = system: A549 NSCLC
ACHN renal = system: ACHN renal
BT-549 breast = system: BT-549 breast
CAKI-1 renal = system: CAKI-1 renal
CCRF-CEM leukemia = system: CCRF-CEM leukemia
COLO 205 colon = system: COLO 205 colon
DU-145 prostate = system: DU-145 prostate
EKVX NSCLC = system: EKVX NSCLC
HCC-2998 colon = system: HCC-2998 colon
HCT-116 colon = system: HCT-116 colon
HCT-15 colon = system: HCT-15 colon
HL-60(TB) leukemia = system: HL-60(TB) leukemia
HOP-62 NSCLC = system: HOP-62 NSCLC
HOP-92 NSCLC = system: HOP-92 NSCLC
HS 578T breast = system: HS 578T breast
HT29 colon = system: HT29 colon
IGROV1 ovarian = system: IGROV1 ovarian
K-562 leukemia = system: K-562 leukemia
LOX IMVI melanoma = system: LOX IMVI melanoma
M14 melanoma = system: M14 melanoma
MALME-3M melanoma = system: MALME-3M melanoma
MDA-MB-231 breast = system: MDA-MB-231 breast
MDA-MB-435 = system: MDA-MB-435
MDA-N = system: MDA-N
MOLT-4 leukemia = system: MOLT-4 leukemia
NCI-H226 lung = system: NCI-H226 lung
NCI-H23 lung = system: NCI-H23 lung
NCI-H460 lung = system: NCI-H460 lung
NCI-H522 lung = system: NCI-H522 lung
NCI/ADR-RES ovarian = system: NCI/ADR-RES ovarian
OVCAR-3 ovarian = system: OVCAR-3 ovarian
OVCAR-4 ovarian = system: OVCAR-4 ovarian
OVCAR-5 ovarian = system: OVCAR-5 ovarian
OVCAR-8 ovarian = system: OVCAR-8 ovarian
PC-3 prostate = system: PC-3 prostate
RPMI-8226 leukemia = system: RPMI-8226 leukemia
SF-268 CNS = system: SF-268 CNS
SF-295 CNS = system: SF-295 CNS
SF-539 CNS = system: SF-539 CNS
SK-MEL-2 melanoma = system: SK-MEL-2 melanoma
SK-MEL-28 melanoma = system: SK-MEL-28 melanoma
SK-MEL-5 melanoma = system: SK-MEL-5 melanoma
SK-OV-3 ovarian = system: SK-OV-3 ovarian
SN12C renal = system: SN12C renal
SNB-19 CNS = system: SNB-19 CNS
SR leukemia = system: SR leukemia
SW-620 colon = system: SW-620 colon
T-47D breast = system: T-47D breast
TK-10 renal = system: TK-10 renal
U251 CNS = system: U251 CNS
UACC-257 melanoma = system: UACC-257 melanoma
UACC-62 melanoma = system: UACC-62 melanoma
UO-31 renal = system: UO-31 renal
786-0 renal = system: 786-0 renal
KM12 colon = system: KM12 colon
RXF 393 renal = system: RXF 393 renal
SNB-75 CNS = system: SNB-75 CNS
MCF7 breast = system: MCF7 breast

Measured: TGI

CC(=O)O[C@H]1CC[C@]2(C=O)[C@H]3CC[C@]4(C)[C@@H](C5=CC(=O)OC5)CC[C@]4(O)[C@@H]3CC[C@]2(O)C1
0.559 µM: U251 CNS
3.99 µM: IGROV1 ovarian
0.467 µM: NCI/ADR-RES ovarian
4.85 µM: SW-620 colon
1.97 µM: NCI-H226 lung
0.0798 µM: MOLT-4 leukemia
0.473 µM: SK-MEL-5 melanoma
3.22 µM: SK-MEL-28 melanoma
2.68 µM: T-47D breast
2.76 µM: HOP-92 NSCLC
1.53 µM: SN12C renal
0.455 µM: HCT-15 colon
0.802 µM: SK-OV-3 ovarian
1.1 µM: UACC-62 melanoma
1.64 µM: COLO 205 colon
0.253 µM: A549 NSCLC
260 nM: SF-539 CNS
0.93 µM: TK-10 renal
0.373 µM: NCI-H23 lung
0.97 µM: MDA-N
1330 nM: HCC-2998 colon
0.853 µM: SF-295 CNS
1.16 µM: A498 renal
3.21 µM: RPMI-8226 leukemia
2.24 µM: SNB-19 CNS
1.48 µM: UO-31 renal
0.984 µM: MDA-MB-435
0.833 µM: HOP-62 NSCLC
0.933 µM: LOX IMVI melanoma
1.63 µM: UACC-257 melanoma
0.357 µM: NCI-H522 lung
1.87 µM: OVCAR-5 ovarian
0.575 µM: BT-549 breast
1.22 µM: M14 melanoma
1.05 µM: HT29 colon
0.557 µM: ACHN renal
0.391 µM: DU-145 prostate
> 100 µM: HS 578T breast | K-562 leukemia | SR leukemia
1.38 µM: PC-3 prostate
0.35 µM: OVCAR-4 ovarian
1.01 µM: OVCAR-8 ovarian
0.615 µM: EKVX NSCLC
> 31.6 µM: CCRF-CEM leukemia
0.06 µM: CAKI-1 renal
0.806 µM: SF-268 CNS
0.566 µM: MALME-3M melanoma
0.5 µM: HCT-116 colon
5.18 µM: HL-60(TB) leukemia
0.622 µM: OVCAR-3 ovarian
0.274 µM: NCI-H460 lung
3.14 µM: MDA-MB-231 breast
1.08 µM: SK-MEL-2 melanoma

COc1cc(OC)cc(-c2nc3ccccc3c(=O)[nH]2)c1
63.8 µM: OVCAR-8 ovarian
62.8 µM: SK-OV-3 ovarian
82.2 µM: A498 renal
> 100000 nM: HCC-2998 colon
66.2 µM: 786-0 renal
58.3 µM: SNB-75 CNS
not listed: NCI-H522 lung | SF-539 CNS | SR leukemia | MCF7 breast
> 100 µM: all other assays above

NS(=O)(=O)c1ccc(NS(=O)(=O)c2ccc(NC(=O)N(c3ccccc3)c3ccccc3)cc2)cc1
77 µM: MDA-MB-435
50.2 µM: OVCAR-3 ovarian
94.9 µM: RPMI-8226 leukemia
80.9 µM: RXF 393 renal
not listed: HCC-2998 colon | HL-60(TB) leukemia | SF-539 CNS | SK-OV-3 ovarian | SR leukemia | SNB-75 CNS
> 100 µM: all other assays above

O=c1[nH]c(=O)c2c([nH]1)[nH]c1ccccc12
> 100000 nM: SF-539 CNS
not listed: HCC-2998 colon | HL-60(TB) leukemia | NCI-H460 lung | PC-3 prostate | SK-MEL-28 melanoma | U251 CNS
> 100 µM: all other assays above
